Experiment: Masking the bitterness of chlorhexidine, panel of trained taste assessors (sip-and-spit, labelled magnitude line scale)
Format: in vivo
Details: for difference of the bitterness of the CHXG/inhibitor mixture from the 0.1% CHXG reference (analysis of variance): ANOVA at the 5% level, reference 0.1% CHXG in 8% ethanol-water; for difference of the bitterness of the CHXG/inhibitor mixture from the 0.1% CHXG reference (analysis of variance) / % suppression of bitterness of 0.1% CHXG: n=18; for % suppression of bitterness of 0.1% CHXG: 8% w/w ethanol in water, reference bitterness set at 70 on line scale 0-100; for masking the bitter taste of chlorhexidine compared with xylitol: inhibitors at 2 & 4% w/w, 0.1% CHXG
Procedure: The efficacy of maltitol, erythritol and xylitol to mask the bitter taste of chlorhexidine digluconate (CHXG) was evaluated using a panel of trained taste assessors.
All test solutions were made up in still mineral water. All tasting sessions were carried out at room temperature (20° C.). Samples were made up w/v (unless otherwise specified) one day before tasting and stored in the refrigerator overnight, then allowed to equilibrate to room temperature the next day before serving.
Eighteen panellists volunteered for the study. The panellists were first screened for their taste acuity using basic identification ranking techniques. 0.20% sodium chloride, 0.054% citric acid, 0.8% sucrose, 0.04% caffeine and 0.15% potassium alum were used to determine their ability to sense and identify saltiness, sourness, sweetness, bitterness and astringency, respectively. The detection and identification thresholds for bitterness were then measured using eight increasing concentrations of quinine hydrochloride (over a range of 0-0.0012%). Panellists were also instructed to rank four random concentrations of caffeine in increasing order of bitterness intensity. A similar experiment was done using quinine hydrochloride. All panellists performed well in those tasks.
The screened panellists were then asked to assess the bitterness intensities of the chlorhexidine mixtures using a “Labelled magnitude line scale” (LMS) as defined by Green et al., Chemical Senses, 1996, 21, 323-334. Solutions were made up containing the bitter inhibitors, 0.1% w/w CHXG, 8% w/w ethanol in water. The following concentrations of inhibitors were used:
Two samples were presented at any one time, one of which was the reference (0.1% CHXG in 8% ethanol-water). Sample presentation was randomised and was duplicated during the course of the study.
The “sip-and-spit” method was used for tasting CHXG solutions. Panellists were instructed to sip 5 ml sample, swirl it around their mouth and spit it out immediately before judging its bitterness intensity. This technique was expected to take 3-4 seconds.
Panellists were instructed to taste the reference first and memorise its bitter intensity. This intensity was assigned the number 70 on the line scale marked 0-100. Panellists were asked to wait until they could no longer feel any bitterness in their mouths (approximately 10 min) before tasting the second solution, whose intensity they then ranked in proportion to the intensity of the reference on the same line scale. Panellists were provided with mineral water to cleanse their palates.
Analysis of Variance (ANOVA) at the 5% level of significance was performed using the EXCEL software to find out whether there were any significant differences between the CHXG reference and the CHXG/inhibitor mixtures. A Fisher Least Significant Difference (LSD) test (O'Mahony M, 1986, Sensory Evaluation of Food—Statistical Methods and Procedures, Marcel Dekker, Inc, New York) was carried out on those samples where a significant difference had been found, to identify which sample means differ from the reference.

[1] = inhibitor 2% w/w in 0.1% w/w CHXG
[2] = inhibitor 4% w/w in 0.1% w/w CHXG

Structure (SMILES) | difference of the bitterness of the CHXG/inhibitor mixture from the 0.1% CHXG reference (analysis of variance) | % suppression of bitterness of 0.1% CHXG [1] [%] | % suppression of bitterness of 0.1% CHXG [2] [%] | masking the bitter taste of chlorhexidine compared with xylitol
OC[C@@H](O)[C@@H](O)CO [Erythritol] | significantly different | 29.2 | 28.2 | more effective than xylitol
OC[C@@H](O)[C@H](O)[C@@H](O)CO [Xylitol, reference compound] |  | 14.3 | 13.6 | 
OC[C@@H](O)[C@@H](O[C@H]1O[C@H](CO)[C@@H](O)[C@H](O)[C@H]1O)[C@H](O)[C@@H](O)CO [Maltitol] | significantly different | 26.9 | 32.6 | more effective than xylitol

From patent publication US20070274929A1, “ORAL COMPOSITION COMPRISING CHLORHEXIDINE AND MALTITOL OR ERYTHRITOL OR A MIXTURE THEREOF” (priority 2000, published 2007)
